# Test results taken from patent US9000028B2, “Indole and indazole compounds as an inhibitor of cellular necrosis” (LG Life Sciences Ltd., priority 2007, dated 2015).
# pEC50: −log10 of the molar value.
# Tested on: primary hepatocytes isolated from rats
# Test: Hepatocyte protective effect against substances deriving hepatocyte toxicity (WST-1 viability)
# Format: cell-based
# Conditions: Rattus norvegicus, Hepatocyte, doxorubicin, 24-48 h, read-out: EC50, cell protective effects against doxorubicin in hepatocytes
# Description: Various endogenous/exogenous attacks on the cells trigger the mechanisms of cell death which is broadly classified into two types, i.e. apoptosis or necrosis. Using these cell death mechanisms, in the present experimental example, primary hepatocytes isolated from rats were treated with drugs which were clinically shown to result in serious side-effects of hepatocyte toxicity or various chemicals which derive cell death, and the compounds synthesized in the Examples were estimated for their hepatocyte protective effects, after 24-48 h. The substances used to derive hepatocyte death include CCl4, ActD, H2O2, doxorubicin, anti-Fas Ab/Actinomycin D, acetaminophen, EtOH, CdCl2, palmitate, stearate, cyclophosphamide, terfenadine, diclofenac, simvastatin, and adefovir. Primary hepatocytes were isolated using the method of Seglen PO (Experimental Cell Research 74 (1972) pp 450-454). Briefly, hepatocytes were isolated according to the two-step collagenase perfusion method, and dead cells were removed by low speed (500 rpm) centrifugation for 10 min using percoll gradient (Kreamer B L etc, In Vitro Cellular & Developmental Biology 22 (1986) pp 201-211). During this step, the viability of cells was maintained 90% or above. The cells were suspended in HepatoZYME media (Gibco BRL), and the number of cells was counted. 1.5×10^4 cells in 100 μl were placed into the collagen-coated 96-well plate (BD biocoat), and adhered on the bottom for 3-4 h.
# In order to assess the hepatocyte protective effect, above adhered cells were pretreated with the Example compounds for 30 min. At this time, the concentration of the Example compounds were serially diluted by 2-fold or 3-fold over 5 steps starting from 30 uM, 10 uM or 1 uM depending on the experiments, and the final concentration of DMSO was adjusted to 0.2%. 30 min after the treatment by compounds, cells were treated by the substances deriving hepatocyte death or hepatotoxic drugs at the concentrations indicated in Table 1. After 24-48 h, the viability of cells was determined to estimate the hepatocyte protective effects. The viability of cells was determined using WST-1 (MK-400, […]) method by the absorbance at 440 nm. Hepatocyte protective effects of the Example compounds were represented by “EC50,” which was calculated from measured values. “EC50” herein means the concentration of the compound at which 50% of maximum protective effect is observed in the experiment.
row,SMILES,pEC50
1,"Cc1cc(NC2CCCC2)c2[nH]c(-c3ccccn3)cc2c1 [Example 1, Cyclopentyl-[5-methyl-2-(pyridin-2-yl)-1H-indol-7-yl]-amine]",7.00
2,"c1cc(NC2CCCC2)c2[nH]c(-c3cnccn3)cc2c1 [Example 5, Cyclopentyl-[2-(pyrazin-2-yl)-1H-indol-7-yl]-amine]",6.30
3,"Cc1cc(NC2CCCC2)c2[nH]c(-c3cnccn3)cc2c1 [Example 6, Cyclopentyl-[5-methyl-2-(pyrazin-2-yl)-1H-indol-7-yl]-amine]",6.52
4,"c1ccc(-c2cc3cccc(NC4CCCC4)c3[nH]2)nc1 [Example 7, Cyclopentyl-[2-(pyridin-2-yl)-1H-indol-7-yl]amine]",6.30
5,"c1ccc(-c2cc3cccc(NC4CCOCC4)c3[nH]2)nc1 [Example 8, (Tetrahydropyran-4-yl)-[2-(pyridin-2-yl)-1H-indol-7-yl]-amine]",5.60
6,"c1ccc(Oc2cc(NC3CCCC3)c3[nH]c(-c4ccccn4)cc3c2)cc1 [Example 9, Cyclopentyl-[5-phenoxy-2-(pyridin-2-yl)-1H-indol-7-yl]-amine]",6.70
7,"CCOc1cc(NC2CCCC2)c2[nH]c(-c3ccccn3)cc2c1 [Example 10, Cyclopentyl-[5-ethoxy-2-(pyridin-2-yl)-1H-indol-7-yl]-amine]",6.70
8,"Cc1cc(NC2CCCCC2)c2[nH]c(-c3ccccn3)cc2c1 [Example 11, Cyclohexyl-[5-methyl-2-(pyridin-2-yl)-1H-indol-7-yl]-amine]",7.00
9,"CC(=O)N1CCC(Nc2cc(C)cc3cc(-c4ccccn4)[nH]c23)CC1 [Example 12, 1-[4-[(5-Methyl-2-(pyridin-2-yl)-1H-indol-7-yl)-amino]piperidin-1-yl]ethanone]",6.40
10,"Cc1cc(NC2CCN(C)CC2)c2[nH]c(-c3ccccn3)cc2c1 [Example 13, (1-Methylpiperidin-4-yl)-[5-methyl-2-(pyridin-2-yl)-1H-indol-7-yl]-amine]",6.40
11,"Cc1cc(NC2CCN(Cc3ccccc3)C2)c2[nH]c(-c3ccccn3)cc2c1 (stereo not drawn) [Example 14, (1-Benzylpyrrolidin-3-yl)[5-methyl-2-(pyridin-2-yl)-1H-indol-7-yl]-amine]",6.52
12,"Cc1cc(NCC2CCCC2)c2[nH]c(-c3ccccn3)cc2c1 [Example 15, Cyclopentylmethyl-[5-methyl-2-(pyridin-2-yl)-1H-indol-7-yl]-amine]",7.00
13,"Cc1cc(N(C)C)c2[nH]c(-c3ccccn3)cc2c1 [Example 17, Dimethyl-[5-methyl-2-(pyridin-2-yl)-1H-indol-7-yl]-amine]",6.27
14,"Cc1cc(NC2CCCC2)c2[nH]c(-c3cccc(C)n3)cc2c1 [Example 19, Cyclopentyl-[5-methyl-2-(6-methylpyridin-2-yl)-1H-indol-7-yl]-amine]",7.15
15,"Cc1cc(NC2CCC(=O)CC2)c2[nH]c(-c3ccccn3)cc2c1 [Example 20, (1-Cyclohexanon-4-yl)-[5-methyl-2-(pyridin-2-yl)-1H-indol-7-yl]-amine]",6.52
16,"O=C1CCC(Nc2cc(Cl)cc3cc(-c4ccccc4)[nH]c23)CC1 [Example 21, 4-[(5-Chloro-2-phenyl-1H-indol-7-yl)amino]-cyclohexan-1-one]",7.40
17,"Cc1cc(NC(=O)Nc2ccccc2)c2[nH]c(-c3ccccn3)cc2c1 [Example 24, 1-Phenyl-3-[5-methyl-2-(pyridin-2-yl)-1H-indol-7-yl]-urea]",6.05
18,"Cc1cc(N(C)C2CCCC2)c2[nH]c(-c3ccccn3)cc2c1 [Example 27, Cyclopentyl-methyl-[5-methyl-2-(pyridin-2-yl)-1H-indol-7-yl]-amine]",5.62
19,"CCOC(=O)c1cc(NC2CCCC2)c2[nH]c(-c3ccccc3)cc2c1 [Example 28, 7-(Cyclopentyl)amino-2-phenyl-1H-indole-5-carboxylic acid ethyl ester]",6.77
20,"OCc1cc(NC2CCCC2)c2[nH]c(-c3ccccc3)cc2c1 [Example 29, Cyclopentyl-[5-hydroxymethyl-2-phenyl-1H-indol-7-yl]-amine]",7.15
21,"O=C(O)c1cc(NC2CCCC2)c2[nH]c(-c3ccccc3)cc2c1 [Example 30, 7-(Cyclopentyl)amino-2-phenyl-1H-indole-5-carboxylic acid]",6.85
22,"CCOC(=O)Cc1cc(NC2CCCC2)c2[nH]c(-c3ccccc3)cc2c1 [Example 31, 2-[7-(Cyclopentyl)amino-2-phenyl-1H-indol-5-yl]-acetic acid ethyl ester]",6.80
23,"OCCc1cc(NC2CCCC2)c2[nH]c(-c3ccccc3)cc2c1 [Example 32, 2-[7-(Cyclopentylamino)-2-phenyl-1H-indol-5-yl]ethanol]",6.89
24,"O=C(O)Cc1cc(NC2CCCC2)c2[nH]c(-c3ccccc3)cc2c1 [Example 33, 2-[7-(Cyclopentyl)amino-2-phenyl-1H-indol-5-yl]acetic acid]",6.82
25,"O=C(O)Cc1cc(NC2CCOCC2)c2[nH]c(-c3ccccc3)cc2c1 [Example 34, 2-[2-Phenyl-7-(tetrahydropyran-4-yl)amino-1H-indol-5-yl]-acetic acid]",< 5.70
26,"O=C(O)Cc1cc(NC2CCS(=O)(=O)CC2)c2[nH]c(-c3ccccc3)cc2c1 [Example 35, 2-[2-Phenyl-7-(1,1-dioxo-tetrahydro-thiopyran-4-yl)amino-1H-indol-5-yl]-acetic acid]",6.20
27,"O=S1(=O)CCN(Cc2cc(NC3CCOCC3)c3[nH]c(-c4ccccc4)cc3c2)CC1 [Example 36, (Tetrahydropyran-4-yl)[2-phenyl-5-(1,1-dioxo-thiomorpholin-4-yl)methyl-1H-indol-7-yl]amine]",7.20
28,"Cc1cc(NC2CCCC2)c2[nH]c(-c3ccccc3)c(C)c2c1 [Example 40, Cyclopentyl-[3,5-dimethyl-2-phenyl-1H-indol-7-yl]-amine]",6.70

# Same assay, conditions: doxorubicin; rat primary hepatocytes; 24-48 h; read-out: EC50, cell protective effects against doxorubicin in hepatocytes
row,SMILES,pEC50
1,"O=C1CN(Cc2cc(NC3CCCC3)c3[nH]c(-c4cccc(F)c4)cc3c2)CCN1 [Example 38, Cyclopentyl-[2-(3-fluoro)phenyl-5-(2-oxo-piperazin-4-yl)methyl-1H-indol-7-yl]amine]",6.96
2,"COc1ccc(-c2cc3cc(CN4CCS(=O)(=O)CC4)cc(NC4CCOCC4)c3[nH]2)cc1 [Example 39, (Tetrahydropyran-4-yl)-[2-(4-methoxy)phenyl-5-(1,1-dioxo-thiomorpholin-4-yl)methyl-1H-indol-7-yl]amine]",6.48
